{"source": "patent USRE46907E1", "about": "“Suppression of cancer growth and metastasis using nordihydroguaiaretic acid derivatives with metabolic modulators” (THE JOHNS HOPKINS UNIVERSITY, priority 2008, dated 2018)", "key": {"[1]": {"tested_on": "4T1 cells", "test": "TUNEL apoptosis assay in 4T1 cells", "assay_type": "cell-based, mouse", "settings": "4T1, 48 hr after treatment, M4N 80 μM", "description": "Cell Culture Either cell line 4T1 or 67NR was a gift from Dr. Miller (20). The cells were cultured in RPMI1640 medium supplemented with glucose (14 mM), pyruvate (1 mM), penicillin (100 units/ml), streptomycin (100 μg/ml), and fetal bovine serum (10%), buffered with 25 mM HEPES (pH 7.4). LNCaP human prostate cancer cell line was purchased from American Type Culture Collection (Manassas, Va.). The cell line was cultured in RPMI1640 medium supplemented with glucose (14 mM), pyruvate (1 mM), penicillin (100 units/ml), streptomycin (100 μg/ml), and fetal bovine serum (10%). Drugs were dissolved in dimethyl sulfoxide (DMSO) at a suitable concentration so that the final concentration of DMSO in the medium was less than 0.1%.\nApoptosis assay: Simple TLTNEL assay was conducted by using TUNEL apoptosis detection kit (Upstate, Temecula, Calif.) with some modification. For the evaluation of the effect of PKCδ wild type and dominant negative vectors on TUNEL-positive cell death, we first transfected 4T1 or 67NR cells with these vectors by effectene (Qiagen, Valencia, Calif.). Wild type PKCδ vector is constructed from wild type PKCδ gene and pEGFP (Promega, Madison, Wis.). Dominant negative PKCδ vector is constructed from PKCδ gene mutated at a 376th amino acid residue (threonine) and pEGFP (Promega, Madison, Wis.) This threonine residue is located in ATP-binding domain of protein kinase Cδ, and therefore essential for any kinase reaction of the protein so that this mutant protein supposedly function as dominant negative. As a control we used pEGFP-N3 vector was used. These vectors contain green fluorescent protein (GFP) gene to be used as a transfection marker. The vectors are kind gifts from Dr. Yuspa (National Institutes of Health, Bethesda, Md.) (88). Twenty four hours after transfection, the cells were treated with M4N, Rottlerin, or Ly294002. Then 24 hrs after this treatment with these reagents, the cells were fixed with 10% formaldehyde in phosphate buffered saline without calcium and magnesium (PBS (−)). The cells were then incubated with rabbit anti-GFP antibody (MBL International, Woburn, Mass.) followed by treatment with anti-rabbit IgG antibody conjugated with fluorescein (Promega, Madison, Wis.). TUNEL staining was conducted by using TUNEL apoptosis detection kit (Upstate, Temecula, Calif.) except for using Streptavidin-Alexa Fluor 568 (Molecular Probes, Eugene, Oreg.) instead of Avidine-Rhodamine contained in the kit. Cell death was evaluated by dividing the number of TUNEL-positive cells among the cells positive with anti-GFP staining by the number of these GFP-positive cells."}, "[2]": {"tested_on": "caspase-9", "test": "Western blotting of caspase-9 cleavage in 67NR cells", "assay_type": "cell-based, mouse", "settings": "5 hrs, Rottlerin 5 μM, M4N 80 μM", "description": "(§1) Western blotting: After cells had been grown in 25 mm^2 flasks and treated with reagents, the cells were washed with PBS (−) three times and suspended in RIP A buffer (150 mM NaCl, 50 mM Tris-HCl (pH 8,0), 0.1% SDS, 1% NP40, and 0.5% deoxycholate) supplemented with protease inhibitor cocktail (Calbiochem, San Diego, Calif.). The sample volumes were adjusted by the total protein amount. Protein assay was performed by Bio-Rad Protein Assay (Bio-Rad Laboratories, Inc. Hercules, Calif.). The samples were resolved by the standard SDS-polyacrylamide gel electrophoresis and transferred to nitrocellulose membrane (Amersham Biosciences, Bjorkgatan, Sweden). The membranes were blocked with skim milk, and incubated with primary antibodies at 4° C. overnight and then with secondary antibody conjugated with horse radish peroxidase at room temperature for 2 hrs. The signals were detected by western blot chemiluminescence reagent plus (New England Nuclear Life Science Products, Boston, Mass.)."}, "[3]": {"tested_on": "PKCδ", "test": "Western blotting of total PKCδ and phosphor-PKCδ (Thr505) in 4T1 cells", "assay_type": "cell-based, mouse", "settings": "4T1, 5 hrs; M4N 80 μM, Ro 5 μM, Ly 20 μM, Des 150 μM", "description": "as §1, with “The” for “Western blotting: After cells had been grown in 25 mm^2 flasks and treated with reagents, the cells were washed with PBS (−) three times and suspended in RIP A buffer (150 mM NaCl, 50 mM Tris-HCl (pH 8,0), 0.1% SDS, 1% NP40, and 0.5% deoxycholate) supplemented with protease inhibitor cocktail (Calbiochem, San Diego, Calif.). The”"}, "[4]": {"tested_on": "PKCδ", "test": "Immunocytochemistry of PKCδ cellular localization in 4T1 cells", "assay_type": "cell-based, mouse", "settings": "4T1, 5 hrs", "description": "Immunocytocheimstry: Cells were cultured on glass cover slips coated with poly-L-ornithine (Sigma, Saint Louis, Mo.). At 5 hrs after treatment with drugs, the cells were fixed with 10% formaldehyde in diluted in PBS (−) and washed with PBS (−) three times. After permeabilized by 0.2% Tryton X-100 and 1% goat serum diluted in PBS (−), the cells were blocked by PBS (−) containing 5% goat serum. The cells were then incubated with primary antibodies diluted in PBS (−) containing 0.5% bovine serum albumin (BSA), and with secondary antibodies, which is either anti-IgG conjugated with fluorescein (Vector Laboratories. Burlingame, Calif.), diluted in PBS (−) containing 0.5% BSA. The cells were observed through Zeiss fluorescent microscope (Carl Zeiss, Thornwood, N.Y.)."}, "[5]": {"tested_on": "4T1 cells", "test": "4T1 tumor-bearing Balb/c mice (life-span, tumor size)", "assay_type": "in vivo, mouse", "settings": "5×10^4 cells, M4N 1 mg/shot, Rottlerin 100 μg/shot, three days a week from day 7", "description": "(§2) Animals: Female Balb/e mice were obtained from Charles River Laboratories (Wilmington, Mass.). M4N and Rottlerin were dissolved into a solvent, CPE (25/30) solvent system supplied by Erimos Pharmaceutical, L.L.C. (Raleigh, N.C.) and injected into mice either intravenously or intraperitoneally, T-cell deficient male nude mice (nu/nu) were obtained from Charles River Laboratories (Wilmington, Mass.). M4N and Ly294002 were dissolved into a solvent, CPE (25/30) solvent system supplied by Erimos Pharmaceutical, L.L.C. (Raleigh, N.C.) and injected into mice intravenously.\n(§3) Tumor inoculation: Either 4T1 or 67NR cells were grown as described above. Cells growing subconfluently were collected and resuspended into the tissue culture medium minus fetal bovine serum and antibiotics, After counting the number of the cells, the cell concentration was adjusted. Twenty μl of the solution containing a selected number of cancer cells (either 5×10^3 or 5×10^4 cells) was injected into each fat pad of a pair of mammary glands located close to lower limbs. Tumor size was measured by weighing tumors extracted from mouse cadavers."}, "[6]": {"tested_on": "67NR cells", "test": "67NR tumor-bearing Balb/c mice (life-span)", "assay_type": "in vivo, mouse", "settings": "5×10^4 cells, M4N 1 mg/shot, Rottlerin 100 μg/shot, three days a week from day 8", "description": "as §2, §3"}, "[7]": {"tested_on": "LNCaP tumors", "test": "Nude mice orthotropically implanted with LNCaP tumors, about eight times tumor volume, treatment from day 3", "assay_type": "in vivo, mouse", "experimental": "Surgical orthotropic implantation of LNCaP tumors: LNCaP cells were grown as described above. Cells growing subconfluently were collected and resuspended into the tissue culture medium without fetal bovine serum and antibiotics. After counting the number of the cells, the cell concentration was adjusted using the same medium. After 20 μl of the medium containing a selected number of cancer cells (about 5×10^7 cells) had been mixed together with the same volume of Matrigel (BD science, Bedford, Mass.), the combined solution was injected into the skin of nude mice. […] The tumor tissue extracted from the skin was excised into pieces of about 2 mm diameter. After nude mice were anesthetized by 2,2,2-Tribromoethanol (Aldrich Chemical Co. Inc., Milwaukee, Wis.), a small incision was made at the abdomen of each mouse and a tumor tissue piece was implanted in the neighbor of the prostate of each mouse. Eight days after the operation, the injection of drugs was initiated, and the drugs were injected intravenously every day for the indicated periods\nAs in the previous experiment (FIGS. 9 to 13), in this study we administered M4N, Ly, Ro, Etoposide, or Rapamycin to mice intravenously using CPE (25/30) solvent system (87). […] However, in this experiment we implanted about eight times the volume of tumors as in the previous experiments to detect the difference of efficacy of various combination treatments much faster. We started to treat the mice with combination treatments three days after the implantation instead of eight days, considering that the tumor volume is already large at the time of implantation in this experiment. This allows less time for possible metastasis to the transplanted tumors in this experiment than in the previous one."}, "[8]": {"tested_on": "HIF", "test": "Western blotting of HIF in 67NR cells", "assay_type": "cell-based, mouse", "settings": "M4N 80 μM", "description": "as §1"}}}
{"smiles": "COc1ccc(C[C@@H](C)[C@@H](C)Cc2ccc(OC)c(OC)c2)cc1OC", "note": "[M4N, tetra-O-methyl nordihydroguaiaretic acid]", "values": [{"measurement": "TUNEL-positive cell death", "setting": "[1]", "value": "did not detect many TUNEL-positive cells"}, {"measurement": "caspase-9 activation (cleavage)", "setting": "[2]", "value": "slightly further augmented"}, {"measurement": "amount of phosphorylated PKCδ at Thr505", "setting": "[3]", "value": "induced phosphorylation"}, {"measurement": "cellular distribution / nuclear staining of total PKCδ", "setting": "[4]", "value": "did not change much"}, {"measurement": "nuclear staining for phosphor-PKCδ (Thr505) in the presence of Des", "setting": "[4]; with Desferoxamine 150 μM", "value": "markedly augmented nuclear staining"}, {"measurement": "nuclear staining for phosphor-PKCδ (Thr505)", "setting": "[4]; without Desferoxamine co-treatment", "value": "augmented staining"}, {"measurement": "life-span of 4T1-bearing mice", "setting": "[5]", "value": "didn't extend the life-span"}, {"measurement": "life-span of 67NR-bearing mice", "setting": "[6]", "value": "didn't have much effect on the life-span"}, {"measurement": "mice with lung metastasis lesions", "setting": "[7]; combination groups at 80 days after tumor implantation", "value": "2 out of 4"}, {"measurement": "time after implantation by which all mice died", "setting": "[7]; mouse, in vivo", "value": "≤ 33", "unit": "days"}, {"measurement": "effect on Desferoxamine-mediated HIF induction", "setting": "[8]", "value": "instead enhanced"}]}
